Values joined by “and” are separate entries in the source; they are usually repeats but may differ in a detail not shown here. Equal entries are not always repeated. Where two headings read alike, the source gives them in different places. Bridge positions count the residues as written; N and C are the ends. Square brackets hold non-standard residues; d marks the D form. Peptide text beside a SMILES is read from it. * marks the point of attachment. ξ: configuration not given here. Octatrienoyl(2E,4E,6E) = C/C=C/C=C/C=C/C(=O)*; ξPro(4ξ-Me) = CC1CNC(C(=O)O)C1; NMeA = CN[CH](C)C(=O)O
Experiments:
[1] = tested on: Clostridium perfringens 81; test: microbe, parasite or virus in culture; format: cell-based
S. pyogenes = test: In vivo protection against experimental bacterial infection in mice; settings: Streptococcus pyogenes, sc, two doses subcutaneously
Description: (§1) When two doses of test compound were administered subcutaneously to mice in illustrative infections, the activity is measured as an ED50 value [effective does in mg./kg. to protect fifty percent of the test animals: See Warren Wick et al., J. Bacteriol. 81, 233-235 (1961)]. The ED50 values for these antibiotic A54556 factors are recorded in Table 15, which follows.

[2] = tested on: experimental bacterial infections; test: In vivo antimicrobial activity against experimental bacterial infections; settings: mice, subcutaneously
Description: as §1

[3] = tested on: Streptococcus sp. (Group D) 9960; test: Disc-plate sensitivity; settings: read-out: Zone diameter
[4] = tested on: Streptococcus sp. (Group D) X66; test: Disc-plate sensitivity; format: cell-based; settings: second test, Table 13
[5] = tested on: Eubacterium aerofaciens 1235; test: MIC, agar-dilution method; format: cell-based; settings: Collinsella aerofaciens
Source text: (§2) Antibiotic A54556 factors A, B, C, D, E, F, G, and H have been tested and found to be active against a number of anaerobic bacteria, as recorded in Table 14, which follows, the MIC values having been determined by the agar-dilution method.

[6] = tested on: Peptostreptococcus intermedius 1264; test: MIC, agar-dilution method; format: cell-based
Source text: as §2

[7] = tested on: Bacteroides fragilis 1877; test: MIC, agar-dilution method; format: cell-based
Source text: as §2

[8] = tested on: Bacteroides thetaiotaomicron 1438; test: MIC, agar-dilution method; format: cell-based
Source text: as §2

[9] = tested on: Bacteroides melaninogenicus 1856/28; test: MIC, agar-dilution method; format: cell-based; settings: Prevotella intermedia
Source text: as §2

[10] = tested on: Bacteroides melaninogenicus 2736; test: MIC, agar-dilution method; format: cell-based
Source text: as §2

[11] = tested on: Clostridium septicum 1128; test: MIC, agar-dilution method; format: cell-based
Source text: as §2

[12] = tested on: Fusobacterium necrophorum 6054A; test: MIC, agar-dilution method; format: cell-based
Source text: as §2

[13] = tested on: Bacteroides fragilis 1936B; test: MIC, agar-dilution method; format: cell-based
Source text: as §2

[14] = tested on: Propionibacterium acnes 79; test: MIC, agar-dilution method; format: cell-based; settings: Cutibacterium acnes
Source text: as §2

[15] = tested on: Clostridium difficile 2994; test: MIC, agar-dilution method; format: cell-based; settings: Clostridioides difficile
Source text: as §2

Bacteroides fragilis 111 = test: MIC, agar-dilution method; format: cell-based
Source text: as §2

[16] = tested on: Staphylococcus epidermidis EPI1; settings: second test, Table 13
anaerobic bacteria = test: Activity against anaerobic bacteria; format: cell-based; settings: agar-dilution method
Electrometric titration = format: physicochemical; settings: 66 percent dimethylformamide in water
Source text: Antibiotic A54556 factor A is a tan, amorphous solid. […] As determined by electron impact and field desorption mass spectrometry, A54556 factor A has a molecular weight of 718.

[17] = tested on: Staphylococcus aureus 3074; settings: Table 12, benzylpenicillin resistant
[18] = tested on: Streptococcus pneumoniae Park I
[19] = tested on: Fusobacterium symbiosum 1470; test: MIC, agar-dilution method; format: cell-based
[20] = tested on: Peptostreptococcus anaerobius 1428; test: MIC, agar-dilution method; format: cell-based
[21] = tested on: Bacteroides corrodens 1874; test: MIC, agar-dilution method; format: cell-based; settings: Eikenella corrodens
[22] = tested on: Staphylococcus aureus 3055; settings: benzylpenicillin-susceptible
[23] = tested on: Bacteroides vulgatis 1211; test: MIC, agar-dilution method; format: cell-based
[24] = tested on: Staphylococcus aureus V41; settings: second test, Table 13, benzylpenicillin resistant
[25] = tested on: Peptococcus asaccharolyticus 1302; test: MIC, agar-dilution method; format: cell-based; settings: Peptoniphilus asaccharolyticus
[26] = tested on: Staphylococcus aureus 3130; settings: Table 12, benzylpenicillin resistant, methicillin resistant
[27] = tested on: Streptococcus pyogenes (Group A) C203
Peptococcus prevoti 1281 = test: MIC, agar-dilution method; format: cell-based
[28] = 30 mcg./disc, second test, Table 13, listed as A
[29] = 300 mcg./disc, second test, Table 13
[30] = 30 mcg./disc, second test, Table 13

## C/C=C/C=C/C=C/C(=O)NC(Cc1ccccc1)C(=O)NC1COC(=O)C2CCCN2C(=O)C(C)NC(=O)C(C)N(C)C(=O)C2CC(C)CN2C1=O (centres unmarked) [Factor A] ({Octatrienoyl(2E,4E,6E)}-FS[ξPro(4ξ-Me)][NMeA]AP; ester 2-C; configuration not given here)
[1]
  MIC: > 128 µg/mL
S. pyogenes
  ED50: > 70 mg/kg
[2]
  in vivo antimicrobial activity against experimental bacterial infections: have shown in vivo antimicrobial activity
[3]
  zone of inhibition at 30 µg/disc: 22.4 mm
  zone of inhibition at 300 µg/disc: 28 mm
[4]; 30 mcg./disc, listed as A
  Zone diameter: 28 mm.
[4]; 300 mcg./disc
  Zone diameter: 29 mm.
[4]; Streptococcus, read-out: Zone diameter, 30 mcg./disc
  zone of inhibition at 30 µg/disc: 23 mm
[4]; Streptococcus, read-out: Zone diameter, 300 mcg./disc
  zone of inhibition at 300 µg/disc: 33 mm
[5]
  MIC: > 128 µg/mL
[6]
  MIC: > 128 µg/mL
[7]
  MIC: > 128 µg/mL
[8]
  MIC: > 128 µg/mL
[9]
  MIC: > 128 µg/mL
[10]
  MIC: > 128 µg/mL
[11]
  MIC: > 128 µg/mL
[12]
  MIC: > 128 µg/mL
[13]
  MIC: > 128 µg/mL
[14]
  MIC: > 128 µg/mL
[15]
  MIC: > 128 µg/mL
Bacteroides fragilis 111
  MIC: > 128 µg/mL
[16]; 30 mcg./disc
  Zone diameter: 20 mm.
[16]; 300 mcg./disc
  Zone diameter: 22 mm. and 28 mm.
Anaerobic bacteria
  activity against a number of anaerobic bacteria: active
Electrometric titration
  titratable groups: no titratable groups
[17]; 30 mcg./disc
  Zone diameter: 18.3 mm.
[17]; 300 mcg./disc
  Zone diameter: 20.9 mm.
[18]; 30 mcg./disc, Table 12
  Zone diameter: 26.0 mm.
[18]; [28]
  Zone diameter: 18 mm. and 22 mm.
[18]; 300 mcg./disc, Table 12
  Zone diameter: 34.0 mm.
[18]; [29]
  Zone diameter: 33 mm. and 35 mm.
[19]
  MIC: > 128 µg/mL
[20]
  MIC: > 128 µg/mL
[21]
  MIC: > 128 µg/mL
[22]; 30 mcg./disc, Table 12
  Zone diameter: 19.2 mm.
[22]; [30]
  Zone diameter: 19 mm. and 21 mm.
[22]; 300 mcg./disc, Table 12
  Zone diameter: 24.3 mm.
[22]; [29]
  Zone diameter: 24 mm.
[22]; 300 mcg./disc, second test, Table 13, listed as A
  Zone diameter: 28 mm.
[23]
  MIC: > 128 µg/mL
[24]; 30 mcg./disc
  Zone diameter: 20 mm. and 22 mm.
[24]; 300 mcg./disc
  Zone diameter: 27 mm. and 33 mm.
[25]
  MIC: > 128 µg/mL
Solubility; lower alcohols (methyl, ethyl, isopropyl, n-propyl, n-butyl), acetone, ethyl acetate, tetrahydrofuran, pyridine, dimethyl sulfoxide
  solubility in organic solvents: soluble
Solubility; water
  solubility in water: insoluble
[26]; 30 mcg./disc
  Zone diameter: 21.7 mm.
[26]; 300 mcg./disc
  Zone diameter: 25.5 mm.
[27]; 30 mcg./disc, Table 12
  Zone diameter: 24.0 mm.
[27]; [30]
  Zone diameter: 25 mm.
[27]; [28]
  Zone diameter: 20 mm.
[27]; 300 mcg./disc, Table 12
  Zone diameter: 30.0 mm.
[27]; [29]
  Zone diameter: 30 mm. and 32 mm.
Peptococcus prevoti 1281
  MIC: > 128 µg/mL
